Test results reported in patent US5843941A, “Ras farnesyl transferase inhibitors” (Genentech, Inc., priority 1994, dated 1998).

Key:
[1] = molecular target: T1, Rab GG transferase (Rattus norvegicus, UniProt Q08602+Q08603); assay: Inhibition of Rab GG transferase; assay type: biochemical; details: FIG. 1C; Rab1A substrate; read-out: IC0.5 Rab GG transferase
T1 construct: purified Components A and B of Rab GG transferase; from tissue
T1 sequence (Q08602 1-567): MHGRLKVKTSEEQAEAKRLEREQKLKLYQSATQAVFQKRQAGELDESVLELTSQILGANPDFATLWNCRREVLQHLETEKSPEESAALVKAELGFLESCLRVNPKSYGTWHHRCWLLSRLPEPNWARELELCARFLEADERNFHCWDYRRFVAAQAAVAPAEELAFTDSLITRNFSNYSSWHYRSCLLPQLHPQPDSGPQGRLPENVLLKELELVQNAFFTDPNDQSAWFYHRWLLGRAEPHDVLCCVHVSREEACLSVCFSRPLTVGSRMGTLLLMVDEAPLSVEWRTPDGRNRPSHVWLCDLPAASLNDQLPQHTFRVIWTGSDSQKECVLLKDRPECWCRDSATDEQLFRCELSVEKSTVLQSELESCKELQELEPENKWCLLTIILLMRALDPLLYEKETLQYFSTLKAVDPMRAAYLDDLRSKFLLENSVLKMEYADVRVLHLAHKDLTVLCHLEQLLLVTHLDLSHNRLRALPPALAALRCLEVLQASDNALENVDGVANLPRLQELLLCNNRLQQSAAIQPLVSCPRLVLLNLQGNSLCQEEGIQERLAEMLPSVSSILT
T1 sequence (Q08603 1-331): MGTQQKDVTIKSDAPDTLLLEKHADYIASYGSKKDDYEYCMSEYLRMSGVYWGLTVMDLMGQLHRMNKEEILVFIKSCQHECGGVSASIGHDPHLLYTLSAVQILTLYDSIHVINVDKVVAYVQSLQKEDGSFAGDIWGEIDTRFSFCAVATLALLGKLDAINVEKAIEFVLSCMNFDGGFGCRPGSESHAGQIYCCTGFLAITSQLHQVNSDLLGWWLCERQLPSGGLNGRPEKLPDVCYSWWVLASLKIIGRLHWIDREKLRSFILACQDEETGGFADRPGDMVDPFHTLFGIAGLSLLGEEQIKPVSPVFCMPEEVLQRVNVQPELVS

[2] = test system: farnesylated proteins F1, F2 and F3 in Met18b-2 cells; assay: Inhibition of intracellular farnesylation in intact Met18b-2 cells, Triton-soluble proteins F1, F2, F3; assay type: cell-based, Chinese hamster
[3] = test system: low molecular weight GTP binding proteins (SMG) in Met18b-2 cells; assay: [3H]mevalonate labeling of low molecular weight GTP binding proteins (SMG) in Met18b-2 cells; assay type: cell-based, Chinese hamster
Source text: To study farnesylation in intact cells we used Met18b-2 cells, a line of Chinese hamster ovary (CHO) cells that takes up [3H]mevalonate efficiently (see Faust, J., and Krieger, M. J. Biol. Chem. 262, 1966 (1987)) owing to the production of a mevalonate transport protein (see Kim, C. M., Goldstein, J. L., Brown, M. S. J. Biol. Chem. 267, 23113 (1992)). The [3H]mevalonate is converted by the cells into [3H]farnesyl pyrophosphate and [3H]geranylgeranyl pyrophosphate, which are then attached to proteins (Kim, C. M., Goldstein, J. L., Brown, M. S. J. Biol. Chem. 267, 23113 (1992)). In the assay, stock cultures of Met18b-2 cells were seeded at a density of 3-105 cells per 60 mm dish in 3 ml of medium A (Dulbecco's modified Eagle medium/Ham's F12 medium (1:1, v/v) containing 100 U/ml penicillin and 100 μg/ml streptomycin) supplemented with 5% (v/v) fetal calf serum (FCS). On day 3, each monolayer was refed with 1 ml medium A supplemented with 1% FCS (dialyzed against 0.15 M NaCl). At this point the cells were treated with 100 μM compactin (see Brown, M. S., Faust, J. R., Goldstein, J. L., Kaneko, I., and Endo, A. J. Biol. Chem. 253, 1121 (1978)) which blocks the synthesis of unlabeled mevalonate within the cells. Each compound was dissolved at 25 mM in DMSO/10 mM DTT immediately before use and 10 μl of this solution added directly. After 2 hr incubation at 37° C., each monolayer received 100 μCi [3H]mevalonate (60 Ci/mmol, American Radiolabeled Chemicals, Inc.) added in 100 μl of the medium A, and the incubation continued for 4 hr. The cells were harvested by rinsing three times with 3 ml of 50 mM Tris-HCl/0.15 M NaCl (pH 7.5). 300 μl of lysis buffer (0.5X Dulbecco's phosphate-buffered saline containing 1% Triton X-100, 5 μg/ml leupeptin, 5 μg/ml pepstatin, 0.5 mM phenylmethylsulfonyl fluoride, and 0.05 U/ml aprotinin) was added to each monolayer. After incubation on ice for 5 mon, the lysates were centrifuged 30 sec in a microfuge at 12,000 g. […] Protein concentrations were determined using the BCA protein assay reagent (Pierce) according to the manufacturer's instructions. […]

Row | Structure (SMILES) | IC50 [1] [µM] | labeling of Triton-soluble farnesylated proteins (F1 to F3) ([2]; 250 μM, FIG. 3) | effect on low molecular weight GTP binding proteins (SMG) ([3]; 250 μM, FIG. 3) | IC (almost complete) ([2]; Cricetulus griseus, read-out: concentration of almost complete inhibition of farnesylation of F1-3) [µM] | minimal effective concentration ([2]; Cricetulus griseus, read-out: concentration of detectable inhibition of farnesylation of F1-3) [µM] | relative potency in intact cells ([2]; dose dependence, FIG. 4, compared with 27B and 37B) | incorporation of radioactivity into SMG proteins ([3]; increasing concentration, FIG. 5, lanes 2-4)
1 | CSCC[C@H](NC(=O)CN1C(=O)C(N(C)C(=O)[C@@H](N)CS)N=C(c2ccccc2)c2ccccc21)C(=O)O (single isomer, unassigned) [27B] | 5.5 | markedly decreased the labeling of all three Triton-soluble farnesylated proteins (F1 to F3) | little effect on the low molecular weight GTP binding proteins | – | – | – | –
2 | COC(=O)[C@H](CCSC)NC(=O)CN1C(=O)C(N(C)C(=O)[C@@H](N)CS)N=C(c2ccccc2)c2ccccc21 (single isomer, unassigned) [37B] | – | – | – | 25 | 10 | much more potent than the parent, compound 27B | did not detectably inhibit the incorporation of radioactivity into the abundant SMG proteins
